Results as given in patent US20050209271A1, “Form of renzapride hydrochloride hydrate and uses thereof” (priority 2003, published 2005).

Key:
Format in all cases: physicochemical
[1] = Dynamic vapour sorption (DVS), adsorption/desorption cycles between 0 and 90% RH
From the text: Each sample was placed into a sample pan and loaded into the DVS system. An initial weight reading was taken. The sample was then exposed to an atmosphere with a relative humidity (RH) of 0% to dry the sample and a dry weight reading taken. The sample was exposed to an adsorption/desorption cycle between 0 and 90% RH in 10% RH intervals. The change in weight data was fitted to an exponential expression that was used to automatically determine the end point of each stage, which then triggers the next increase/decrease in relative humidity. For the DVS traces, the stepped lines represent the relative humidity (RH) level in the Chamber. The curved line represents the weight change in the sample. The RH was controlled automatically and changes once the rate of change in weight of the sample is small.

[2] = Intrinsic dissolution rate (IDR) of compressed discs in a static dissolution system
Procedure: The samples were prepared as discs. Each disc was prepared by compressing the sample for 5 minutes at 2 tons of pressure. Each disc was transferred to a static dissolution system, whereby one surface of the disc is exposed to the dissolution medium. Six discs were prepared from each batch of material for duplicate intrinsic dissolution rate (IDR) determinations at pHs 2.2, 4.0 and 7.0. Dissolution samples (0.8 ml) were withdrawn at 5 minute intervals up to 60 minutes and samples were analysed. The amount of drug released (mg) is divided by the surface area of the disc (0.5 cm^2) to obtain an amount per unit area (mg cm^−2). The average of the duplicate determinations is plotted as a function of time (minutes). The IDR (mg cm^−2 minutes^−1) is given by the gradient (determined by linear regression) over the linear range of the release profile. When the dissolution into solution is deemed independent of pH, a pH independent IDR is calculated. The pH independent IDR is calculated by averaging the data for each time point at all of the pHs studied and calculating the linear regression on at least the first 5 data points. All IDR values are reported with the error encompassing the upper and lower 95% confidence limits of the linear regression. Linear regression analysis of the IDR data used all of the data points, as the release profiles are linear.

[3] = Storage stability at 25° C./60% relative humidity; details: 25° C./60% RH
Procedure: Samples of Form II renzapride hydrochloride hydrate were placed in storage under conditions of 25° C./60% relative humidity.

[4] = Particle size distribution; details: 5 kg batch
Procedure: The Particle Size Distribution (PDS) of renzapride is measured according to the method detailed below. [table] • Vibration feed rate: 40% • Air pressure: 3.5 Bar Single measurement of each batch performed in triplicate.

moisture taken up at 90% RH (DVS) ([1]; chamber at 90% RH): ~9.5 % (w/w)
uptake in moisture at 10% RH (DVS) ([1]; exposure to 10% RH, initial uptake): ca. 9 % (w/w)
IDR independent (pH independent IDR) ([2]; data averaged over all pHs studied, error = 95% confidence limits): 5.7 ± 0.3 mg/min/cm^2
IDR pH 2.2 ([2]; pH 2.2, error = 95% confidence limits of linear regression): 5.5 ± 0.2 mg/min/cm^2
IDR pH 4.0 ([2]; pH 4.0, error = 95% confidence limits of linear regression): 5.7 ± 0.2 mg/min/cm^2
IDR pH 7.0 ([2]; pH 7.0, error = 95% confidence limits of linear regression): 5.9 ± 0.3 mg/min/cm^2
Description ([3]; t = 0 months): White
Water content (by Karl Fisher) ([3]; t = 0 months): 8.9%(w/w)
Description ([3]; t = 6 months): White
Water content (by Karl Fisher) ([3]; t = 6 months): 8.6%(w/w)
Description ([3]; t = 12 months): White
Water content (by Karl Fisher) ([3]; t = 12 months): 8.8%(w/w)
Description ([3]; t = 18 months): White
Water content (by Karl Fisher) ([3]; t = 18 months): 8.8%(w/w)
Description ([3]; t = 24 months): White
Water content (by Karl Fisher) ([3]; t = 24 months): 8.8%(w/w)
Span = (d(0.9) − d(0.1))/d(0.5) [4]: 2.1
d (0.1) [4]: 11.5 μm
d(0.5) [4]: 47.1 μm
d(0.9) [4]: 109.0 μm
SMILES: COc1cc(N)c(Cl)cc1C(=O)NC1CCN2CCCC1C2.Cl (centres unmarked) [Form II, renzapride hydrochloride hydrate]
